Measured values from paper PMC8821502, “Engineering a feedback inhibition-insensitive plant dihydrodipicolinate synthase to increase lysine content in Camelina sativa seeds” (Transgenic Research, 2021).

Assays:
Assay in all cases: o-aminobenzaldehyde colorimetric DHDPS assay, […] nm
Type in all cases: biochemical
CsDHDPS B6 (wt CsDHDPS) [1] = target: T1, CsDHDPS B6 (wt CsDHDPS) (Camelina sativa, UniProt A0ABM0Z9P4); conditions: read-out: % activity remaining at 25 μM lysine
T1 construct: gene LOC104788368; ORF (365 aa, includes predicted 38-aa chloroplast transit peptide) in pUC18 in-frame with LacZ start codon; E. coli cell extract, not purified; modelled as tetramer

CsDHDPS B6 (wt CsDHDPS) [2] = target: T1, CsDHDPS B6 (wt CsDHDPS); conditions: 2 mM L-ASA, 35 mM pyruvate, pH 8, 37 °C; E. coli extract
CgDHDPS = target: T2, CgDHDPS (Corynebacterium glutamicum, UniProt P19808); conditions: 2 mM L-ASA, 35 mM pyruvate, pH 8, 37 °C; E. coli extract
T2 construct: gene dapA; ORF (301 aa) in pUC18; E. coli cell extract, not purified
T2 sequence (P19808 1-301): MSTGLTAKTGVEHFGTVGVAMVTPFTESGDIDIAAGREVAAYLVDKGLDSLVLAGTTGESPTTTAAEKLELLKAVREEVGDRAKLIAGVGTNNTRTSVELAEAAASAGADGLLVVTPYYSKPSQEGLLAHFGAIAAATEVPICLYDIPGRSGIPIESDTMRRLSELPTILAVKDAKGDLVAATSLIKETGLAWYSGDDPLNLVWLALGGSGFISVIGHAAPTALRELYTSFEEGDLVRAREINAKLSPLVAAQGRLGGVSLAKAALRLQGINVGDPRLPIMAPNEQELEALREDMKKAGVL

T1 sequence (A0ABM0Z9P4 entry or part of it): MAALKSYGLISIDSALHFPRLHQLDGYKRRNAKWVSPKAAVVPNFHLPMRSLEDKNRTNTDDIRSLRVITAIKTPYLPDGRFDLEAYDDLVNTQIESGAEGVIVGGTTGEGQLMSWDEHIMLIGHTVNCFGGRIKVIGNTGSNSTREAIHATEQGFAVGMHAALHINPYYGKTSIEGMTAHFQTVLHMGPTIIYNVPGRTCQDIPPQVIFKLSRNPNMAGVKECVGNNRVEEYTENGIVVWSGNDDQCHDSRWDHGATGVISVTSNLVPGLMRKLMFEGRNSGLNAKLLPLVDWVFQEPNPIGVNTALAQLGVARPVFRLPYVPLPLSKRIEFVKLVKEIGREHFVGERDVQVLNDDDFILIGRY

**Q.** Which remaining activity at 25 µM (CsDHDPS B6 (wt CsDHDPS) [1]) does the source give for `NCCCC[C@H](N)C(=O)O` [lysine] here?
**A.** 20%

**Q.** How did the “o-aminobenzaldehyde colorimetric DHDPS assay, 520 nm” value (CsDHDPS B6 (wt CsDHDPS) [2]) turn out when `N[C@@H](CC=O)C(=O)O` [L-aspartic-β-semi-aldehyde] was run?
**A.** using L-aspartic-β-semi-aldehyde (L-ASA) as the substrate

**Q.** What about the “o-aminobenzaldehyde colorimetric DHDPS assay, 520 nm” value (CgDHDPS) of the same compound?
**A.** using L-aspartic-β-semi-aldehyde (L-ASA) as the substrate
